In patent US9192599B2, “Treating inflammation and inflammatory pain in mucosa using mucosal prolonged release bioadhesive therapeutic carriers” (Onxeo S.A., priority 2008, dated 2015):
Values joined by “and” are separate entries in the source; they are usually repeats but may differ in a detail not shown here. Identical values can stand only once. Like-named read-outs stand apart in the source and are kept apart here.

Experiments:
TNFα = TNFα quantification by ELISA in human oral mucosa organotypic culture stimulated by substance P; format: cell-based
Procedure: Biopsy samples of clinically healthy non keratinised human oral mucosa were obtained from patients undergoing surgery.
Small biopsies (explant size: 5 mm^2 surface and 3 mm thickness and about 15 to 20 mg weight) were transferred onto permeable polycarbonate membrane transwells (12 mm diameter, 12 μm pore size) in a well of a 12 well plate (as previously described Boisnic S. et al., 2003 and 2006) containing 700 μl of defined medium (DMEM, antibiotics, hormones, pituitary extract, SVF). For each donor, the gingival biopsy was cut to obtain the same weight so that to have comparison between different conditions tested. Explants were maintained at the interface between air and medium: the oral mucosa epithelium was in contact with air and the chorion was exposed to the media by diffusion through the porous polycarbonate membrane.
Cohesion between gingival fragment and insert was obtained with a polyvinylsiloxane addition type silicone elastomer seal (Coltene® president) in such a way that no gingival retraction or lateral passage of the product towards the dermis was possible. The culture was set up for 2 days in a humidified atmosphere containing 5% CO2 at 37° C.
The stimulation of the experimental oral mucosa inflammatory process was done by the neuropeptide substance P (SP) (Boisnic et al., 2003).
The neuropetide SP ([SP]=10 μM) was added (or not) to the culture medium in order to simulate the mucositis pro-inflammatory process. SP was in contact with the mucosal chorion after diffusion through the porous membrane.
The cell culture lasted two days (“D0” for the first day and “D1” for the second day).
Therefore the clonidine treatment was done before and during substance P stimulation.
Removed D1 culture medium in each well; aliquot it in 7 samples of 100 μl and store at −80° C. for cytokines release analysis.
At the end of each culture all the human oral mucosa explants were weighed (cytokines release expressed as pg/mg of cultured oral mucosa explants).
Mean values and standard deviations were calculated for each parameter. The statistical significance of changes recorded in the parameters were determined with unpaired Mann-Whitney U test (p<0.05).

mucositis in hamsters = conditions: for mucositis severity, daily scores vs vehicle control (Mann-Whitney rank sum): day −1 to 20; for average weight gain, % of starting weight: days −1 to 20, topical; for animal days with mucositis score of 3 or higher / peak mean mucositis score: days −1 to 20; for peak mean mucositis score: peak on day 16, scale 0-5; for course and severity of mucositis, comparison of schedules: day −1 to 20, topical
Procedure: Thirty-two (32) male Syrian Golden Hamsters were randomly assigned to four (4) equally-sized groups. […] All agents were administered topically. On study day 0, each hamster was irradiated with a single dose of 40 Gy directed to the left buccal cheek pouch. Animals were subsequently weighed and observed daily. Beginning on day 6 and continuing on alternate days for the duration of the study, images of the left cheek pouch mucosa was obtained. At the conclusion of the in-life phase of the study, the images were scored for mucositis severity using a validated scale and the number of days of ulcerative mucositis was assessed using a Chi-squared test of scores of ≧3 throughout the study. The individual daily group scores were evaluated using a rank sum test.
Mucositis was induced using a standardized acute radiation protocol. A single dose of radiation (40 Gy/dose) was administered to all animals on day 0. Radiation was generated with a 160 kilovolt potential (15-ma) source at a focal distance of 40 cm, hardened with a 0.35 mm Al filtration system. Irradiation targeted the left buccal pouch mucosa at a rate of 2.5 Gy/minute. Prior to irradiation, animals were anesthetized with an intraperitoneal injection of Ketamine (160 mg/ml) and Xylazine (8 mg/ml). The left buccal pouch was everted, fixed and isolated using a lead shield.
For the evaluation of mucositis, the animals were anesthetized with an Inhalation anesthetic, and the left pouch everted. Mucositis was scored visually by comparison to a validated photographic scale, ranging from 0 for normal, to 5 for severe ulceration (clinical scoring). In descriptive terms, this scale is defined in Table 2:
A score of 1-2 is considered to represent a mild stage of the disease, whereas a score of 3-5 is considered to indicate moderate to severe mucositis. Following visual scoring, a photograph was taken of each animal's mucosa using a standardized technique. At the conclusion of the experiment, all films were developed and the photographs randomly numbered. At least two independent trained observers graded the photographs in blinded fashion using the above-described scale (blinded scoring).
Test materials were given by topical administration directed to the left cheek pouch daily as detailed in Table 3.
to day 20. Animals in Groups 1, 3 and 4 were dosed at 6 am, 11 am, 4 pm and 9 pm. Animals in Group 2 were dosed at 6 am.
Mucositis was evaluated clinically starting on Day 6, and continuing on alternate days until day 28.

Compound: Clc1cccc(Cl)c1NC1=NCCN1 [clonidine, N-(2,6-dichlorophenyl)-4,5-dihydro-1H-imidazol-2-amine]
- anti-inflammatory effect on gingiva stimulated by SP (TNFα; doses 0.009, 0.03, 0.09 and 0.3 μg/ml): No significant anti-inflammatory effect
- TNFα quantification by ELISA (TNFα; gingiva + SP, 0.009 μg/ml clonidine): 1.14 ± 0.7 pg/mg
- TNFα quantification by ELISA (TNFα; gingiva + SP, 0.03 μg/ml clonidine): 1.02 ± 0.4 pg/mg
- TNFα quantification by ELISA (TNFα; gingiva + SP, 0.09 μg/ml clonidine): 1.08 ± 0.29 pg/mg
- TNFα quantification by ELISA (TNFα; gingiva + SP, 0.3 μg/ml clonidine): 0.86 ± 0.4 pg/mg
- TNFα quantification by ELISA (TNFα; gingiva + SP, 0.9 μg/ml clonidine): 0.74 pg/mg and 0.74 ± 0.36 (* p = 0.0106) pg/mg
- TNFα quantification by ELISA (TNFα; gingiva + SP, 3 μg/ml clonidine): 0.67 pg/mg and 0.67 ± 0.27 (* p = 0.0056) pg/mg
- TNFα quantification by ELISA (TNFα; gingiva without SP, 3 μg/ml clonidine): 0.83 ± 0.40 pg/mg
- TNFα quantification by ELISA (TNFα; gingiva without SP, 3 μg/ml clonidine, listed as Clonidine): 0.83 pg/mg
- mucositis severity, daily scores vs vehicle control (Mann-Whitney rank sum) (mucositis in hamsters; 12.5 μg/kg 4 times daily, days 20, 22 and 24): significantly lower mucositis scores than the vehicle controls
- mucositis severity, daily scores vs vehicle control (Mann-Whitney rank sum) (mucositis in hamsters; 12.5 μg/kg 4 times daily, days 20, 22 and 24, listed as Clonidine): significantly reduced the severity of mucositis
- average weight gain, % of starting weight (mucositis in hamsters; 12.5 μg/kg 4 times daily): 46.1%
- animal days with mucositis score of 3 or higher (mucositis in hamsters; 12.5 μg/kg 4 times daily, p=0.047 vs vehicle): 26.0%
- peak mean mucositis score (mucositis in hamsters; 12.5 μg/kg 4 times daily): 3.0
- mucositis severity, daily scores vs vehicle control (Mann-Whitney rank sum) (mucositis in hamsters; 25 μg/kg 4 times daily, days 6 and 14): significantly lower mucositis scores than the vehicle controls
- mucositis severity, daily scores vs vehicle control (Mann-Whitney rank sum) (mucositis in hamsters; 25 μg/kg 4 times daily, days 6 and 14, listed as Clonidine): significantly reduced the severity of mucositis
- average weight gain, % of starting weight (mucositis in hamsters; 25 μg/kg 4 times daily): 45.0%
- animal days with mucositis score of 3 or higher (mucositis in hamsters; 25 μg/kg 4 times daily, p=0.125 vs vehicle): 28.1%
- peak mean mucositis score (mucositis in hamsters; 25 μg/kg 4 times daily): 3.1
- course and severity of mucositis, comparison of schedules (mucositis in hamsters; 100 μg/kg once daily): superior to the other concentrations and schedules tested
- course and severity of mucositis, comparison of schedules (mucositis in hamsters; 100 μg/kg once daily, listed as Clonidine): favorably altered the course and severity of mucositis
- mucositis severity, daily scores vs vehicle control (Mann-Whitney rank sum) (mucositis in hamsters; 100 μg/kg once daily, days 16, 20 and 22): significantly different than the vehicle control group
- mucositis severity, daily scores vs vehicle control (Mann-Whitney rank sum) (mucositis in hamsters; 100 μg/kg once daily, days 16, 20 and 22, listed as Clonidine): significantly reduced the severity of mucositis
- average weight gain, % of starting weight (mucositis in hamsters; 100 μg/kg once daily): 51.3%
- animal days with mucositis score of 3 or higher (mucositis in hamsters; 100 μg/kg once daily, p=0.003 vs vehicle): 21.9%
- peak mean mucositis score (mucositis in hamsters; 100 μg/kg once daily): 2.8
- severity of mucositis based on mucositis score area under the curve (mucositis in hamsters; all three treatment groups, p=0.0007): severity of mucositis was reduced
- adverse reaction to treatment (mucositis in hamsters; any of the doses tested): no evidence of any significant adverse reaction

Compound: SP: neuropeptide substance P added to culture medium to simulate the mucositis pro-inflammatory process
- TNFα quantification by ELISA (TNFα; gingiva + SP 10 μM, no clonidine (positive control)): 1.7 ± 1.09 (# p = 0.0056) pg/mg
- TNFα quantification by ELISA (TNFα; gingiva + SP 10 μM, no clonidine (positive control), listed as substance P): 1.7 pg/mg
